Bounds are passed on as bounds.

29 compounds from patent publication US12459921B2, “Isoindoline compound, preparation method, pharmaceutical composition and use thereof” (SHANGHAI INSTITUTE OF MATERIA MEDICA, CHINESE ACADEMY OF …, priority 2018, dated 2025) can be followed below.

The test system of one assay is MM.1S cells. Description: Inhibitory effect on the proliferation of MM.1S, MTS cell viability test. It is filed as cell-based. The following applies: Homo sapiens, MM1.S, 168 h, multiple myeloma MM.1S cells, 7 days incubation, read-out: Tumor cell inhibitory activity. The procedure:
Method of tumor cell proliferation inhibition test: the inventors tested all the example compounds on hematologic tumor cells, multiple myeloma MMTs cell line and acute leukemia cell MV-4-11 cell line of some examples. The activity test method and results are as follows.
1. The Compound's Inhibitory Effect on the Proliferation of MM.1S, MTS Cell Viability Test:
MM.1S cells were cultured and collected with 1640 plus 10% fetal bovine serum. The cell concentration was diluted according to 7 days, and 180 ul cell suspension was added to each well of the 96-well cell plate to 20,000 cells. 20 ul of DMSO with a final concentration of 0.2% was added to the control wells. The compound was 5-fold diluted—from the 10 mM stock solution, and 20 ul was also added to each compound cell well (the final concentration of DMSO was 0.2%). The cells were placed in a 37° C., 5% CO2 incubator to incubate for 7 days. After the reaction solution was prepared according to the MTS kit (Promega, G5430), 20 μL was added to each well and incubated in a 37° C., 5% CO2 incubator for 3-4 h. Absorbance value at 490 nm was read with a microtiter plate, and 690 nm absorbance value was used as the background value. OD490-OD690 was used as the final initial data. The formula for calculating the inhibition rate of the compound is: inhibition rate=(ODDMSO-ODcompound)/(ODDMSO-Oblank)×100%. The compound's proliferation inhibition IC50 was fitted by Graph Pad Prism 5.0. The experiment was repeated three times, and the average and standard deviation was calculated according to the three parallel experiments.
Cell viability test results: **** represents cell viability IC50>20 μM, […] represents cell viability 1 μM<IC50<20 μM, ** represents cell viability 100 nM<IC50<1 μM, * represents cell viability IC50<100 nM.
For the compound `O=C1CCC(N2Cc3c(OCCCCNC(=O)N4CCN(c5cccc(Cl)c5Cl)CC4)cccc3C2=O)C(=O)N1` (centres unmarked) [Example 33, 4-(2,3-dichlorophenyl)-N-(4-((2-(2,6-dioxopiperidine-3-)-1-oxoisoindoline-4-)oxy)butyl)piperazine-1-carboxamide], the IC50 was less than 100 nM. With `O=C1CCC(N2Cc3c(OCCCCC(=O)N4CCCc5ccccc54)cccc3C2=O)C(=O)N1` (centres unmarked) [Example 119, 3-(4-((5-(3,4-dihydroquinoline-1(2H)-)-5-oxopentyl)oxy)-1-oxoisoindoline-2-)piperidine-2,6-dione], the IC50 was less than 100 nM.

For `O=C1CCC(N2Cc3c(CCCCCN4CCC5(CC4)OCc4cc(F)ccc45)cccc3C2=O)C(=O)N1` (centres unmarked) [Example 273, 3-(4-(5-(5-fluoro-3H-spiro[isobenzofuran-1,4′-piperidine]-1′-)pentyl)-1-oxoisoindoline-2-yl)piperidine-2,6-dione], the IC50 fell in the range of 100 to 1000 nM. With `O=C1CCC(N2Cc3c(CCCCN4CCN(c5nsc6ccccc56)CC4)cccc3C2=O)C(=O)N1` (centres unmarked) [Example 230, 3-(4-(4-(4-(benzisothiazol-3-yl)piperazine-1-yl)butyl)-1-oxoisoindoline-2-yl) piperidine-2,6-dione], the IC50 was 1000 to 20000 nM.

With `N#CC1(c2ccc(Cl)cc2)CCN(CCCCc2cccc3c2CN(C2CCC(=O)NC2=O)C3=O)CC1` (centres unmarked) [Example 95, 4-(4-chlorophenyl)-1-(4-(2-(2,6-dioxopiperidine-3-)-1-oxoisoindoline-4-)butyl)piperidine-4-carbonitrile], the IC50 is less than 100 nM. On to `N#CC1(c2cc(Cl)cc(Cl)c2)CCN(CCCCc2cccc3c2CN(C2CCC(=O)NC2=O)C3=O)CC1` (centres unmarked) [Example 244, 4-(3,5-dichlorophenyl)-1-(4-(2-(2,6-dioxopiperidine-3-yl)-1-oxoisoindoline-4-yl)butyl)piperidine-4-carbonitrile], for which the IC50 is 100 to 1000 nM.

With `N#CC1(c2cccc(Cl)c2)CCN(CCCCOc2cccc3c2CN(C2CCC(=O)NC2=O)C3=O)CC1` (centres unmarked) [Example 75, 4-(3-chlorophenyl)-1-(4-((2-(2,6-dioxopiperidine-3-)-1-oxoisoindoline-4-)oxy)butyl)piperidine-4-carbonitrile], the IC50 is 100 to 1000 nM. As for `O=C1CCC(N2Cc3c(CCCCN4CCN(c5ccccc5C(F)(F)F)CC4)cccc3C2=O)C(=O)N1` (centres unmarked) [Example 219, 3-(1-oxo-4-(4-(4-(2-(trifluoromethyl)phenyl)piperazine-1-yl)butyl)isoindoline-2-yl)piperidine-2,6-dione], the IC50 is less than 100 nM. `O=C1CCC(N2Cc3c(CCCCCN4CCC5(CC4)OCc4ccc(Cl)cc45)cccc3C2=O)C(=O)N1` (centres unmarked) [Example 127]: the IC50 fell in the range of 100 to 1000 nM. In the case of `CC(=O)N[C@@H](CCCc1cccc2c1CN(C1CCC(=O)NC1=O)C2=O)C(=O)NC12CC3CC(CC(C3)C1)C2` (stereo partly drawn) [Example 198, (2S)-2-acetylamino-N-((3R,5R,7R)-adamantane-1-)-5-(2-(2,6-dioxopiperidine-3-)-1-oxoisoindoline-4-)pentanamide], the IC50 was less than 100 nM. In the case of `O=C1CCC(N2Cc3c(CCCCCN4CCC5(CC4)C(=O)Nc4cccc(Cl)c45)cccc3C2=O)C(=O)N1` (centres unmarked) [Example 276, 3-(4-(5-(4-chloro-2-oxospiro[dihydroindole-3,4-piperidin]-1-yl)pentyl)-1-oxoisoindoline-2-yl)piperidine-2,6-dione], the IC50 lay in the range of 100 to 1000 nM. Turning to `O=C1CCC(N2Cc3c(CCCCCOc4cc(C(F)(F)F)nc5ccccc45)cccc3C2=O)C(=O)N1` (centres unmarked) [Example 13, 3-(1-oxo-4-(5-((2-(trifluoromethyl)quinoline-4-)oxy)pentyl)isoindoline-2-)piperidine-2,6-ditone], the IC50 was less than 100 nM. The same measure, in the same setting: next, `N#CC1(c2ccc(F)cc2)CCN(CCCOc2cccc3c2CN(C2CCC(=O)NC2=O)C3=O)CC1` (centres unmarked) [Example 65, 1-(3-((2-(2,6-dioxopiperidine-3-)-1-oxoisoindoline-4-)oxy)propyl)-4-(4-fluorophenyl)piperidine-4-carbonitrile]: 100 to 1000 nM; `O=C1CCC(N2Cc3c(CCCCCN4CCc5cc(Br)ccc54)cccc3C2=O)C(=O)N1` (centres unmarked) [Example 112]: less than 100 nM. On to `COc1ccccc1N1CCN(CCCCCc2cccc3c2CN(C2CCC(=O)NC2=O)C3=O)CC1` (centres unmarked) [Example 19, 3-(4-(5-(4-(2-methoxyphenyl)piperazine-1-)pentyl)-1-oxoindoline-2-)piperidine-2,6-dione], for which the IC50 is less than 100 nM. On to `CC(=O)N[C@@H](CCCc1cccc2c1CN(C1CCC(=O)NC1=O)C2=O)C(=O)NC(C)(C)C` (stereo partly drawn) [Example 168, (2S)-2-acetylamino-N-tert-butyl-(2-(2,6-dioxopiperidine-3-)-1-oxoisoindoline-4-)pentanamide], for which the IC50 lay in the range of 1000 to 20000 nM.

Regarding `O=C1CCC(N2Cc3c(OCCCN4CCC5(CC4)OCc4ccc(Cl)cc45)cccc3C2=O)C(=O)N1` (centres unmarked) [Example 138, 3-(4-(3-(6-chloro-3H-spiro[isobenzofuran-1,4′-piperidine]-1′-)propoxy)-1-oxoisoindoline-2-)piperidine-2,6-dione], the IC50 is less than 100 nM. On to `N#CC1(c2ccc(OC(F)(F)F)cc2)CCN(CCCOc2cccc3c2CN(C2CCC(=O)NC2=O)C3=O)CC1` (centres unmarked) [Example 73, 1-(3-((2-(2,6-dioxopiperidine-3-)-1-oxoisoindoline-4-)oxy)propyl)-4-(4-trifluoromethoxyphenyl)piperidine-4-carbonitrile], for which the IC50 was less than 100 nM.

On to `Cc1ccc(NC(=O)[C@H](CCCc2cccc3c2CN(C2CCC(=O)NC2=O)C3=O)NC(=O)C2CCNCC2)cc1Cl` (stereo partly drawn) [Example 191, N-((2S)-1-((3-chloro-4-methylphenyl)amino)-5-(2-(2,6-dioxopiperidine-3-) -1-oxoisoindoline-4-)-1-oxopentyl-2-)piperidine-4-carboxamide], for which the IC50 was in the range of 100 to 1000 nM. Consider `O=C1CCC(N2Cc3c(OCCCCCOc4ccnc5ccccc45)cccc3C2=O)C(=O)N1` (centres unmarked) [Example 12, 3-(1-oxo-4-((5-(quinoline-4-oxy)pentyl)oxy)isoindoline-2-)piperidine-2,6-dione], for which the IC50 lay in the range of 100 to 1000 nM.

In the case of `O=C1CCC(N2Cc3c(OCCCC(=O)N4CCCc5ccccc54)cccc3C2=O)C(=O)N1` (centres unmarked) [Example 117, 3-(4-(4-(3,4-dihydroquinoline-1(2H)-)-4-oxobutoxy)-1-oxoisoindoline-2-)piperidine-2,6-dione], the IC50 fell in the range of 100 to 1000 nM. Still for that read-out and setting: next, `CC1CCc2cc(F)ccc2N1CCCCCc1cccc2c1CN(C1CCC(=O)NC1=O)C2=O` (centres unmarked) [Example 104, 3-(4-(5-(6-fluoro-2-methyl-3,4-dihydroquinoline-1(2H))pentyl)-1-oxoisoindoline-2-) piperidine-2,6-dione]: 100 to 1000 nM; `N#CC1(c2cccc(Cl)c2)CCN(C(=O)CCCOc2cccc3c2CN(C2CCC(=O)NC2=O)C3=O)CC1` (centres unmarked) [Example 83, 4-(3-chlorophenyl)-1-(4-((2-(2,6-dioxopiperidine-3-)-1-oxoisoindoline-4-)oxy)butyryl) piperidine-4-carbonitrile]: less than 100 nM. For the compound `Cc1ccc2c(c1)C1(CCN(CCCOc3cccc4c3CN(C3CCC(=O)NC3=O)C4=O)CC1)OC2` (centres unmarked) [Example 140, 3-(4-(3-(6-methyl-3H-spiro[isobenzofuran-1,4′-piperidine]-1′-)propoxy)-1-oxoisoindoline-2-)piperidine-2,6-dione], the IC50 was less than 100 nM. The same measure, in the same setting: next, `N#CC1(c2ccccc2Cl)CCN(CCOc2cccc3c2CN(C2CCC(=O)NC2=O)C3=O)CC1` (centres unmarked) [Example 64, 4-(2-chlorophenyl)-1-(2-((2-(2,6-dioxopiperidine-3-)-1-oxoisoindoline-4-)oxy)ethyl) piperidine-4-carbonitrile]: 100 to 1000 nM; `O=C1CCC(N2Cc3c(CCCCN4CCN(c5cccc(Cl)c5Cl)CC4)cccc3C2=O)C(=O)N1` (centres unmarked) [Example 21, 3-(4-(4-(4-(2,3-dichlorophenyl)piperazine-1-)butyl)-1-oxoisoindoline-2-)piperidine-2,6-dione]: less than 100 nM; `Cc1cc(OCCCCOc2cccc3c2C(=O)N(C2CCC(=O)NC2=O)C3=O)c2ccccc2n1` (centres unmarked) [Example 108, 2-(2,6-dioxopiperidine-3-)-4-(4-((2-methylquinoline-4-)oxy)butoxy)isoindoline-1,3-dione]: 1000 to 20000 nM. The same measure, in the same setting: the value for `CC(=O)N[C@@H](CCCc1cccc2c1CN(C1CCC(=O)NC1=O)C2=O)C(=O)Nc1ccccc1-c1ccccn1` (stereo partly drawn) [Example 194, (2S)-2-acetylamino-5-(2-(2,6-dioxopiperidine-3-)-1-oxoisoindoline-4-)-N-(2-(pyridine-2-)phenyl)pentanamide] was 100 to 1000 nM.

Still in this assay, the particulars now being: multiple myeloma MM.1S cells, 7 days incubation, read-out: Tumor cell inhibitory activity.
`N#CC1(c2ccc(O[C@H]3CCOC3)cc2)CCN(CCCCCc2cccc3c2CN(C2CCC(=O)NC2=O)C3=O)CC1` (stereo partly drawn) [Example 263, 1-(5-(2-(2,6-dioxopiperidin-3-yl)-1-oxoisoindolin-4-yl)pentyl)-4-(4-(((S)-tetrahydrofuran-3-yl)oxy)phenyl)piperidine-4-carbonitrile]: the IC50 was 100 to 1000 nM.
